Reference: patent publication US8404664B2, “Phosphonated Rifamycins and uses thereof for the prevention and treatment of bone and joint infections” (Targanta Therapeutics, Inc., priority 2005, dated 2013)
≈ marks a conversion by molar mass, not a printed value. Marks after values point to notes of the source that are not given here.

Key:
[1] = tested on: S. aureus ATCC 13709; test: Antibacterial susceptibility (MIC), NCCLS broth microdilution; format: cell-based; details: for MIC: Staphylococcus aureus, ATCC13709, read-out: Minimum inhibitory concentration, S. aureus ATCC 13709
Experimental: (§1) Susceptibility of S. aureus strains to the known antibiotics and synthesized compounds was determined by following the guidelines set by NCCLS (M26-A). Compounds were diluted two-fold serially in DMSO and transferred to cation-adjusted Mueller Hinton broth (CAMHB; Becton Dickinson). 50 μL of compounds diluted in CAMHB was mixed with 100 μL of bacteria diluted in CAMHB in 96-well microtiter plates. The final concentration of micro-organisms in the assay was 5×10^5 c.f.u. per mL and the final concentration of DMSO in the assay was 1.25%. Assays were set up in duplicate and incubated at 37° C. for 18 h. The lowest concentration of compound that inhibited visible growth was reported as the minimum inhibitory concentration (MIC).

[2] = tested on: S. aureus ATCC 43300 (Fluoroquinolone sensitive MRSA); test: as above; format: cell-based; details: for MIC: Staphylococcus aureus, read-out: Minimum inhibitory concentration, S. aureus ATCC 43300
Experimental: as §1

[3] = tested on: S. aureus BK85 (Fluoroquinolone resistant MRSA); test: as above; format: cell-based; details: for MIC: Staphylococcus aureus, read-out: Minimum inhibitory concentration, S. aureus BK85
Experimental: as §1

[4] = tested on: S. aureus RN4220; test: as above; format: cell-based; details: CAMHB, 37° C., 18 h; for MIC: Staphylococcus aureus, RN4220, read-out: Minimum inhibitory concentration, S. aureus RN4220
Experimental: as §1

[5] = tested on: S. aureus ATCC 13709 Novobiocin and Rifampicin resistant variant; test: microbe, parasite or virus in culture; format: cell-based; details: for Minimum inhibitory concentration, S. aureus ATCC 13709 variant: Novobiocin and Rifampicin resistant variant; for MIC: Staphylococcus aureus, ATCC13709, read-out: Minimum inhibitory concentration, S. aureus ATCC 13709 variant
Experimental: as §1

[6] = tested on: S. aureus ATCC 13709; test: Antibacterial susceptibility (MIC) in the presence of serum; format: cell-based; details: for MIC: Staphylococcus aureus, ATCC13709, 18 h
Experimental: as §1
Susceptibility testing experiments were also carried out in the presence of serum.
These experiments were carried out similar to the susceptibility testing with the following modifications. 75 μL of compounds diluted in CAMHB was mixed with 75 μL of bacteria diluted in 100% serum from any given source (commercial pooled mouse serum (MS) and human serum (HS), Equitech-Bio Inc.) or diluted in 8% purified human serum albumin (HSA) (Calbiochem). The final concentration of animal serum in the assay was 50% and the final concentration of purified human serum albumin in the assay was 4%; the concentrations of all other components were identical to those described for susceptibility testing.

[7] = tested on: E. coli LBB925 (tolC mutant); test: Antibacterial susceptibility (MIC), NCCLS broth microdilution; format: cell-based; details: for Minimum inhibitory concentration, E. coli LBB925: tolC mutant; for MIC: Escherichia coli, read-out: Minimum inhibitory concentration, E. coli LBB925
[8] = Regeneration of drug from bone powder-bound prodrug; format: in vitro ADME; details: for % Conversion of bone-bound prodrug to parent drug: 24 h incubation, 37° C.; for Impact of the medium on the rate of regeneration of parent drug (in words): serum compared to PBS
Experimental: Amounts of parent drug “regenerated” from the phosphonated prodrug were measured as follows. Washed bone powder-bound prodrugs from the above experiment were resuspended in 400 μL PBS+2% DMSO or in 400 μL 50% (v/v in PBS+2% DMSO) human or rat serum. The suspension was incubated overnight at 37° C., centrifuged at 13,000 rpm for 2 min and the supernatant was recovered. The amount of regenerated parent drug in the supernatant was determined by measurements using the microbiological assay that was previously described for the prodrugs themselves. The amount of prodrug was deduced from standard curves of known amounts of parent drug that were used as reference for each experiment.

[9] = tested on: S. aureus ATCC 13709 Novobiocin resistant mutant (bone infection); test: Prophylactic efficacy in rat model of S. aureus bone infection; format: in vivo; details: rat tibia 24 h postinfection, 3 days prior to infection
Experimental: Specifically, a spontaneous Novobiocin resistant mutant strain of S. aureus ATCC 13709 (a clinical osteomyelitis isolate), was grown overnight at 37° C. in brain heart infusion broth (BHIB). After 16 h of growth, cells were subcultured into fresh BHIB and incubated for 4 to 5 h at 37° C. The cells were washed twice with phosphate-buffered saline (PBS) and resuspended in BHIB supplemented with 10% (vol./vol.) fetal bovine serum at a density of approximately 10^10 colony forming units (CFU)/ml (based upon turbidimetry). The suspension was aliquoted and a portion was used to check the CFU count. The culture was stored frozen (−80° C.) and was used without subculture. For use as an inoculum the culture was thawed, diluted in PBS and kept in an ice bath until it was used.
Animals were infected as described by O'Reilly et al. (Antimicrobial Agents and Chemotherapy (1992), 36(12): 2693-97) to generate the bone infection. Female CD rats (age, 57 to 70 days; n=5/group; Charles River, St-Constant, Canada) were anaesthetized by isofluorane before and during the surgery. Following complete induction of anesthesia, the rat was placed ventral side up and hair was shaved from the surgical site. The skin over the leg was cleaned and disinfected (proviodine-ethanol 70%). A longitudinal incision below the knee joint was made in the sagital plane. The incision was made over the bone below the “knee joint” (tibia head or condyle) but not completely extending to the ankle. A high speed drill fitted with a 2 mm bulb bit was used to drill a hole into the medullar cavity of the tibia. Rats were injected intra-tibially with 0.05 ml 5% sodium morrhuate (sclerosing agent) and then with 0.05 ml of S. aureus suspension (ca. 2×10^7 CFU/rat). The hole was sealed by applying a small amount of dry dental cement which immediately absorbs fluids and adheres to the site. The wound was closed using 3 metal skin clips. Moxifloxacin (as a positive control) was injected once at 10 mg/kg intravenously 1 h postinfection in saline, while the Rifamycin derived prodrugs (prepared in 0.9% saline) were injected at the dose indicated in Table 3 as a single intravenous bolus at different time points prior to the infection.
Infected rats were sacrificed by CO2 asphyxiation 24 h postinfection to monitor the bacterial CFU count. Infected tibiae were removed, dissected free of soft tissue, and weighed. The bones were ground, resuspended in 5 ml 0.9% NaCl, serially diluted and processed for quantitative cultures. For compounds 50, 68 and 81, 1 ml of the 0.9% NaCl solution was added to 50 mg of charcoal before serial dilutions. Treatment efficacy was measured in terms of Log viable bacteria (Log CFU per gram of bone). […] The limit of detection is 2 Log CFU. […] Differences were considered significant when the P value was <0.05 when comparing treated infected animals to the untreated infected ones. The doses used, the amount of time separating the treatment from the time of infection and the treatment outcomes are shown in Table 3.

[10] = single dose 20 mg/kg parent drug equivalent
[11] = read-out: Minimum inhibitory concentration, S. aureus ATCC 13709 + 50% Human Serum
[12] = read-out: Minimum inhibitory concentration, S. aureus ATCC 13709 + 50% Mouse Serum
[13] = read-out: Minimum inhibitory concentration, S. aureus ATCC 13709 + 50% Rat Serum

SMILES	Minimum inhibitory concentration, S. aureus ATCC 13709 [1] [µg/mL]	Minimum inhibitory concentration, S. aureus ATCC 43300 [2] [µg/mL]	Minimum inhibitory concentration, S. aureus BK85 [3] [µg/mL]	Minimum inhibitory concentration, S. aureus RN4220 [4] [µg/mL]	Activity against the Rifampicin resistant variant of S. aureus ATCC13709 (in words) [5]	Minimum inhibitory concentration, S. aureus ATCC 13709 variant [5] [µg/mL]	Minimum inhibitory concentration, S. aureus ATCC 13709 + 50% Human Serum [6] [µg/mL]	Minimum inhibitory concentration, S. aureus ATCC 13709 + 50% Mouse Serum [6] [µg/mL]	Minimum inhibitory concentration, S. aureus ATCC 13709 + 50% Rat Serum [6] [µg/mL]	Minimum inhibitory concentration, E. coli LBB925 [7] [µg/mL]	% Conversion of bone-bound prodrug to parent drug ([8]; 50% Rat Serum) [%]	% Conversion of bone-bound prodrug to parent drug ([8]; PBS) [%]	Impact of the medium on the rate of regeneration of parent drug (in words) [8]	Measured bacterial titer [9, 10]	MIC [1] [µg/mL]	MIC [2] [µg/mL]	MIC [3] [µg/mL]	MIC [4] [µg/mL]	MIC [5] [µg/mL]	MIC [6, 11] [µg/mL]	further results
CCN(CC)CC.CCN(CC)CC.CO[C@H]1/C=C/O[C@@]2(C)Oc3c(C)c(O)c4c(c3C2=O)C2=NC3(CCN(CC(C)C)CC3)N(C(=O)OCOC(=O)CCCC(P(=O)(O)O)P(=O)(O)O)C2=C(NC(=O)/C(C)=C\C=C\[C@H](C)[C@H](O)[C@@H](C)[C@@H](O)[C@@H](C)[C@H](OC(C)=O)[C@@H]1C)C4=O [Compound 50]	0.25	0.25	0.25	0.25	complete lack of activity	>128	0.125	0.125	0.032	16	2.68	2.65	not significantly impacted	6.31 ± 0.82 Log CFU/g of bone	–	–	–	–	–	–	Impact of serum on the MICs (in words) [6]: no impact
CO[C@H]1/C=C/O[C@@]2(C)Oc3c(C)c(O)c4c(=O)c(c5oc6cc(N7CCC(O)CC7)cc(O)c6nc-5c4c3C2=O)NC(=O)/C(C)=C\C=C\[C@H](C)[C@H](O)[C@@H](C)[C@@H](O)[C@@H](C)[C@H](OC(C)=O)[C@@H]1C [Compound 63, 1′,4-Didehydro-1-deoxy-1,4-dihydro-3′-hydroxy-5′-[4-hydroxy-1-piperidinyl]-1-oxorifamycin VIII]	–	–	–	–	–	–	–	–	–	–	–	–	–	2.84 ± 0.93 Log CFU/g of bone	0.00048 (≈ 0.533 nM)	0.00048 (≈ 0.533 nM)	0.00048 (≈ 0.533 nM)	0.00048 (≈ 0.533 nM)	2 (≈ 2220 nM)	0.0078	MIC [6, 12]: 0.0156 µg/mL; MIC [6, 13]: 0.032 µg/mL; MIC [7]: 8 µg/mL (≈ 8890 nM)
CO[C@H]1/C=C/O[C@@]2(C)Oc3c(C)c(O)c4c(=O)c(c5oc6cc(N7CCC(OC(=O)CCC(=O)NC(P(=O)(O)O)P(=O)(O)O)CC7)cc(O)c6nc-5c4c3C2=O)NC(=O)/C(C)=C\C=C\[C@H](C)[C@H](O)[C@@H](C)[C@@H](O)[C@@H](C)[C@H](OC(C)=O)[C@@H]1C [Compound 68]	0.0625 (≈ 53.3 nM)	0.0625 (≈ 53.3 nM)	0.25 (≈ 213 nM)	0.25 (≈ 213 nM)	complete lack of activity	>128	1	1	2	64 (≈ 54600 nM)	0.24	0.02	significant acceleration	4.86 ± 0.66 Log CFU/g of bone	–	–	–	–	–	–	Regeneration of parent drug once bound to bone (in words) [8]: only slightly regenerates
CO[C@H]1/C=C/O[C@@]2(C)Oc3c(C)c(O)c4c(=O)c(c5oc6cc(N7CCN(CC(C)C)CC7)cc(O)c6nc-5c4c3C2=O)NC(=O)/C(C)=C\C=C\[C@H](C)[C@H](O)[C@@H](C)[C@@H](O)[C@@H](C)[C@H](OC(C)=O)[C@@H]1C [Rifalazil, 1′,4-Didehydro-1-deoxy-1,4-dihydro-3′-hydroxy-5′-[4-(2-methylpropyl)-1-piperazinyl]-1-oxorifamycin VIII, reference compound]	–	–	–	–	–	–	–	–	–	–	–	–	–	4.08 ± 1.53^a Log CFU/g of bone	0.001 (≈ 1.06 nM)	0.001 (≈ 1.06 nM)	0.001 (≈ 1.06 nM)	0.00048 (≈ 0.51 nM)	16 (≈ 17000 nM)	0.032	MIC [6, 12]: 0.032 µg/mL; MIC [6, 13]: 0.0078 µg/mL; MIC [7]: 16 µg/mL (≈ 17000 nM); Measured bacterial titer ([9]; single dose 10 mg/kg parent drug equivalent): 2.21 ± 0.34 Log CFU/g of bone
